# Results taken from publication PMC10850145, “Hormonal steroids induce multidrug resistance and stress response genes in Neisseria gonorrhoeae by binding to MtrR” (Nature Communications, 2024).
# Values joined by “and” are separate entries in the source; they are usually repeats but may differ in a detail not shown here. Identical values can stand only once. Like-named read-outs stand apart in the source and are kept apart here.
# Tests used:
# [1] = system: rpoH-lacZ expression; assay type: cell-based, Neisseria gonorrhoeae; conditions: for Miller units / β-galactosidase activity (Miller units): rpoH-lacZ, single replicate; for Plate-6 (Testosterone) Miller units, Mean: lower four plate rows
# [2] = molecular target: T1, MtrR binding to mtrCDE operator (21mer) (Neisseria gonorrhoeae, UniProt P39897); experiment: Fluorescence polarization based DNA binding assay, mtrCDE operator; conditions: mtrCDE 21mer + 125 µM steroid
# T1 construct: Hexa-histidine tag with TEV protease cleavage site (N, cleaved yes); made in house; host or cells: E. coli Rosetta Gami B(DE3) pLysS
# T1 sequence (P39897 whole entry): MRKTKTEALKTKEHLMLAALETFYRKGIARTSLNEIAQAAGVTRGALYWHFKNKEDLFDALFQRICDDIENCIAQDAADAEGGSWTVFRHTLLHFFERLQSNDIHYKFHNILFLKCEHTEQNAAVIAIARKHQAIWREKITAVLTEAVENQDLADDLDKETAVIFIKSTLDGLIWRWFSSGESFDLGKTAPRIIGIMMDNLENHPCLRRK
# Description: Fluorescence polarization based-DNA binding data were collected using a Panvera Beacon 2000 fluorescence polarization system (Invitrogen) and analyzed with Prism (Graphpad Software 9, 10). Purified MtrR was buffer exchanged into “DNA” binding buffer (150 mM NaCl, 20 mM Tris-HCl pH 7.5, 2.5% glycerol, 1 mM TCEP). […] The reported oligoduplexes containing the rpoH and mtrCDE binding site differ in lengths, 27mer and 21mer, respectively[17],[21]. […] BSA and dI-dC are included as carriers and to control for nonspecific DNA binding. Samples were excited at 490 nm and polarized emissions measured at 530 nm. Controls were run with no protein (DNA ± methanol, hormonal steroids) to ensure that millipolarization values were not affected by experimental conditions alone. The binding affinity of protein for DNA was determined using the following equation: P = Pf + (Pb – Pf) [M] / (Kd + [M]) where P is the measured polarization, Pf is the polarization of free DNA, Pb is the polarization of the completely bound DNA, Kd is the equilibrium dissociation constant, and M is the concentration of protein. Pb and Kd were determined by nonlinear least-squares analysis. At least three independent experimental measurements were averaged for each reported binding constant.
# [3] = ΔmtrR + mtrR D171A in trans, 25 µM hormone
# [4] = ΔmtrR + mtrR D171A in trans, 50 µM hormone
# [5] = ΔmtrR + mtrR WT in trans, 25 µM hormone
smiles,measurement,setting,value
"C[C@]12CC[C@H]3[C@@H](CCC4=CC(=O)CC[C@@]43C)[C@@H]1CC[C@@H]2O [Testosterone, testosterone]",Miller units,[1]; [3],68 Miller units
same,β-galactosidase activity (Miller units),[1]; [3],64 Miller units and 60 Miller units and 67 Miller units
same,Miller units,[1]; [4],56 Miller units
same,β-galactosidase activity (Miller units),[1]; [4],65 Miller units and 49 Miller units and 58 Miller units
same,β-galactosidase activity (Miller units),"[1]; ΔmtrR + mtrR WT in trans, 6.25 µM hormone",39 Miller units and 46 Miller units and 47 Miller units
same,β-galactosidase activity (Miller units),"[1]; ΔmtrR + mtrR WT in trans, 12.5 µM hormone",51 Miller units and 50 Miller units and 56 Miller units and 52 Miller units
same,Miller units,[1]; [5],55 Miller units
same,β-galactosidase activity (Miller units),[1]; [5],68 Miller units and 55 Miller units and 57 Miller units and 70 Miller units
same,β-galactosidase activity (Miller units),"[1]; ΔmtrR + mtrR WT in trans, 50 µM hormone",76 Miller units and 71 Miller units and 62 Miller units and 63 Miller units
same,β-galactosidase activity (Miller units),"[1]; ΔmtrR strain, 6.25 µM hormone",119 Miller units and 89 Miller units and 76 Miller units
same,β-galactosidase activity (Miller units),"[1]; ΔmtrR strain, 12.5 µM hormone",126 Miller units and 100 Miller units and 81 Miller units
same,β-galactosidase activity (Miller units),"[1]; ΔmtrR strain, 25 µM hormone",155 Miller units and 93 Miller units and 79 Miller units
same,β-galactosidase activity (Miller units),"[1]; ΔmtrR strain, 50 µM hormone",151 Miller units and 101 Miller units and 93 Miller units
same,Miller units,"[1]; ΔmtrR, 6.25 µM hormone",100 Miller units
same,Miller units,"[1]; ΔmtrR, 12.5 µM hormone",101 Miller units
same,Miller units,"[1]; ΔmtrR, 25 µM hormone",122 Miller units
same,Miller units,"[1]; ΔmtrR, 50 µM hormone",132 Miller units
same,"β-galactosidase activity, rpoH-lacZ, Mean","[1]; strain WT (FA19/pLES94-rpoH), hormone 6.25 µM",69 Miller units
same,"β-galactosidase activity, rpoH-lacZ, Mean","[1]; strain WT (FA19/pLES94-rpoH), hormone 12.5 µM",81 Miller units
same,"β-galactosidase activity, rpoH-lacZ, Mean","[1]; strain WT (FA19/pLES94-rpoH), hormone 25 µM",98 Miller units
same,"β-galactosidase activity, rpoH-lacZ, Mean","[1]; strain WT (FA19/pLES94-rpoH), hormone 50 µM",117 Miller units
same,activation of rpoH,[1]; strain producing MtrR R176E,significantly less activation
same,"β-galactosidase activity, rpoH-lacZ, Mean","[1]; strain ΔmtrR (FA19 ∆mtrR/pLES94-rpoH), hormone 6.25 µM",96 Miller units
same,"β-galactosidase activity, rpoH-lacZ, Mean","[1]; strain ΔmtrR (FA19 ∆mtrR/pLES94-rpoH), hormone 12.5 µM",102 Miller units
same,"β-galactosidase activity, rpoH-lacZ, Mean","[1]; strain ΔmtrR (FA19 ∆mtrR/pLES94-rpoH), hormone 25 µM",112 Miller units
same,"β-galactosidase activity, rpoH-lacZ, Mean","[1]; strain ΔmtrR (FA19 ∆mtrR/pLES94-rpoH), hormone 50 µM",119 Miller units
same,"β-galactosidase activity, rpoH-lacZ, Mean","[1]; strain ΔmtrR + mtrR D171A (pGCC3-mtrR D171A), hormone 6.25 µM",64 Miller units
same,"β-galactosidase activity, rpoH-lacZ, Mean","[1]; strain ΔmtrR + mtrR D171A (pGCC3-mtrR D171A), hormone 12.5 µM",62 Miller units
same,"β-galactosidase activity, rpoH-lacZ, Mean","[1]; strain ΔmtrR + mtrR D171A (pGCC3-mtrR D171A), hormone 25 µM",65 Miller units
same,"β-galactosidase activity, rpoH-lacZ, Mean","[1]; strain ΔmtrR + mtrR D171A (pGCC3-mtrR D171A), hormone 50 µM",57 Miller units
same,"β-galactosidase activity, rpoH-lacZ, Mean","[1]; strain ΔmtrR + mtrR WT (pGCC3-mtrR), hormone 6.25 µM",43 Miller units
same,"β-galactosidase activity, rpoH-lacZ, Mean","[1]; strain ΔmtrR + mtrR WT (pGCC3-mtrR), hormone 12.5 µM",52 Miller units
same,"β-galactosidase activity, rpoH-lacZ, Mean","[1]; strain ΔmtrR + mtrR WT (pGCC3-mtrR), hormone 25 µM",63 Miller units
same,"β-galactosidase activity, rpoH-lacZ, Mean","[1]; strain ΔmtrR + mtrR WT (pGCC3-mtrR), hormone 50 µM",68 Miller units
same,"Plate-6 (Testosterone) Miller units, Mean","[1]; testosterone 6.25 µM, plate column 3",43 Miller units
same,"Plate-6 (Testosterone) Miller units, Mean","[1]; testosterone 6.25 µM, plate column 9 (second strain set, columns 7-12)",64 Miller units
same,"Plate-6 (Testosterone) Miller units, Mean","[1]; testosterone 12.5 µM, plate column 4",52 Miller units
same,"Plate-6 (Testosterone) Miller units, Mean","[1]; testosterone 12.5 µM, plate column 10 (second strain set, columns 7-12)",62 Miller units
same,"Plate-6 (Testosterone) Miller units, Mean","[1]; testosterone 25 µM, plate column 5",63 Miller units
same,"Plate-6 (Testosterone) Miller units, Mean","[1]; testosterone 25 µM, plate column 11 (second strain set, columns 7-12)",65 Miller units
same,"Plate-6 (Testosterone) Miller units, Mean","[1]; testosterone 50 µM, plate column 6",68 Miller units
same,"Plate-6 (Testosterone) Miller units, Mean","[1]; testosterone 50 µM, plate column 12 (second strain set, columns 7-12)",57 Miller units
same,"fluorescence polarization, MtrR titration",[2]; MtrR WT dimer 0.00 nM,0.00 mP
same,"fluorescence polarization, MtrR titration",[2]; MtrR WT dimer 6.35 nM,2.61 mP and 1.77 mP and 1.84 mP
same,"fluorescence polarization, MtrR titration",[2]; MtrR WT dimer 11.32 nM,5.67 mP and 3.54 mP and 4.04 mP
same,"fluorescence polarization, MtrR titration",[2]; MtrR WT dimer 16.21 nM,6.61 mP and 4.54 mP and 5.44 mP
same,"fluorescence polarization, MtrR titration",[2]; MtrR WT dimer 35.50 nM,8.17 mP and 7.34 mP and 6.54 mP
same,"fluorescence polarization, MtrR titration",[2]; MtrR WT dimer 73.35 nM,11.31 mP and 10.71 mP and 11.67 mP
same,"fluorescence polarization, MtrR titration",[2]; MtrR WT dimer 110.67 nM,14.21 mP and 12.44 mP and 14.87 mP
same,"fluorescence polarization, MtrR titration",[2]; MtrR WT dimer 147.65 nM,16.64 mP and 15.47 mP and 17.31 mP
same,"fluorescence polarization, MtrR titration",[2]; MtrR WT dimer 220.59 nM,21.64 mP and 18.07 mP and 21.37 mP
same,"fluorescence polarization, MtrR titration",[2]; MtrR WT dimer 292.55 nM,24.51 mP and 22.87 mP and 24.21 mP
same,"fluorescence polarization, MtrR titration",[2]; MtrR WT dimer 363.86 nM,27.31 mP and 26.01 mP and 26.94 mP
same,"fluorescence polarization, MtrR titration",[2]; MtrR WT dimer 434.54 nM,29.54 mP and 28.57 mP and 30.57 mP
same,"fluorescence polarization, MtrR titration",[2]; MtrR WT dimer 504.61 nM,32.14 mP and 30.37 mP and 33.41 mP
same,"fluorescence polarization, MtrR titration",[2]; MtrR WT dimer 574.07 nM,34.11 mP and 32.41 mP and 35.04 mP
same,"fluorescence polarization, MtrR titration",[2]; MtrR WT dimer 711.46 nM,38.41 mP and 36.24 mP and 38.57 mP
same,"fluorescence polarization, MtrR titration",[2]; MtrR WT dimer 848.00 nM,41.31 mP and 39.27 mP and 42.47 mP
